# Values quoted from earlier work as cited in patent US10632087B2, “Famciclovir and meloxicam combination therapy for functional somatic syndromes” (INNOVATIVE MED CONCEPTS, LLC., priority 2012, dated 2020).
# System: fibromyalgia patients
# Conditions: valacyclovir alone; not recommended as therapy for fibromyalgia
compound,measurement,value
CC(C)[C@H](N)C(=O)OCCOCn1cnc2c(=O)[nH]c(N)nc21 [valacyclovir],treatment of fibromyalgia patients,not successful
